# System: MIA-PACA2 pancreatic cancer cell lines
# Assay: Cell proliferation assay (CellTiter 96 AQueous One)
# Format: cell-based
# Details: Homo sapiens, MIA PaCa-2; at 30 μM, MIA-PACA2
# Procedure: Cell lines: Tumor-derived pancreatic cancer cell lines MIA-PACA2 were purchased from ATCC and grown in complete DMEM-High Glucose medium supplemented with penicillin (100 U/mL), streptomycin (100 μg/mL), and 10% heat-inactivated FBS at 37° C. in a humidified incubator with 5% CO2.
# Method: Cells are plated at 1000 cells/well density in 96-wells plate, starved ON, and the next day tested small molecules are added to the cells in the final concentration of 30 μM with 0.3% DMSO 3 hours prior to 10% FBS addition. After serum addition cells are incubated for 6 days at 37° C. in a humidified incubator with 5% CO2. For IC50 value determination, serial dilutions of compounds were added to cells under the same conditions.
# Assay: At the end of the incubation period, cell cultures are tested using the CellTiter 96® AQueous One Solution Cell Proliferation Assay kit (Promega Corporation, Madison, Wis.) according to the manufacturer specifications. Briefly, assay is performed by adding 20 μl of the CellTiter 96 Aqueous One Solution Reagent directly to culture wells, followed by for 1-4 hours incubation at 37° C. in a humidified incubator with 5% CO2. At the end of incubation time, absorbance at 492 nm is recorded with the 96-well plate reader Eppendorf AF2200, and degree of small molecule-dependent proliferation inhibition is calculated from raw data assuming No Serum cells value as 100%.
row,Compound,inhibition at 30 µM
1,COc1cc(CNc2nc(-c3ccccn3)nc3scc(-c4ccccc4)c23)ccc1OCC(N)=O,76 to 100%
2,COc1ccc(CCC(=O)Nc2nnc(-c3ccccn3)[nH]2)cc1F [drawing 1385],1 to 25%
3,O=C(COc1ccc2c(c1)CCC2)Nc1nnc(-c2ccccn2)[nH]1 [drawing 1438],1 to 25%
4,O=C(c1csc2c(O)nc(-c3ccccn3)nc12)N1CCNC(c2ccccc2Cl)C1 (centres unmarked) [drawing 1699],76 to 100%
5,COc1ccccc1-c1csc2c(O)nc(-c3ccccn3)nc12 [drawing 1746],76 to 100%
6,O=C(c1csc2c(O)nc(-c3ccccn3)nc12)N1CCN(Cc2ccc(O)cc2)CC1 [drawing 1657],1 to 25%
7,O=C(Cc1ccc(F)cc1)Nc1nnc(-c2ccccn2)[nH]1 [drawing 1427],51 to 75%
8,O=C(NCCc1ccc(O)c(O)c1)c1csc2nc(-c3ccccn3)nc(N3CCOCC3)c12 [drawing 1678],76 to 100%
9,Oc1nc(-c2ccccn2)nc2c(-c3ccc(OC4CCOC4)cc3)csc12 (centres unmarked) [drawing 1738],76 to 100%
10,O=C(CCNC(=O)c1ccco1)Nc1nnc(-c2ccccn2)[nH]1 [drawing 1417],76 to 100%
11,Cc1sc2c(O)nc(-c3ccccn3)nc2c1-c1ccccc1 [drawing 1781],76 to 100%
12,CC(C)(C)c1nc(C(=O)Nc2nnc(-c3ccccn3)[nH]2)cs1 [drawing 1454],76 to 100%
13,CCc1cc(NNC(=O)c2ccc(C#N)cc2)nc(-c2ccccn2)n1 [drawing 1511],76 to 100%
14,COc1ccc(COCC(=O)N2CCCc3c(O)nc(-c4ccccn4)nc32)cc1 [drawing 1544],76 to 100%
15,Cc1nc(-c2ccccn2)nc(O)c1CCC(=O)Nc1cccc(OCC(=O)N2CCCC2)c1 [drawing 1507],1 to 25%
16,COC(=O)c1csc2nc(-c3ccccn3)nc(N)c12 [drawing 1771],76 to 100%
17,O=C(c1csc2c(O)nc(-c3ccccn3)nc12)N1CCNC(c2ccc(F)cc2)C1 (centres unmarked) [drawing 1700],76 to 100%
18,O=C(c1csc2c(O)nc(-c3ccccn3)nc12)N1CCN(c2ccc(F)cc2)CC1 [drawing 1648],76 to 100%
19,CC(C)(O)c1ccc(-c2csc3c(O)nc(-c4ccccn4)nc23)c(F)c1 [drawing 1756],76 to 100%
20,Cc1ccccc1N1CCN(C(=O)c2csc3c(O)nc(-c4ccccn4)nc23)CC1 [drawing 1633],76 to 100%
21,O=S1(=O)CCC(N2CCN(c3nc(-c4ccccn4)nc4scc(-c5ccccc5)c34)CC2)C1 (centres unmarked) [drawing 1608],76 to 100%
22,COc1cccc(C(=O)Nc2nc(-c3ccccn3)cs2)c1 [drawing 1487],76 to 100%
23,Cc1cccc(C)c1OCCOC(=O)c1ccccc1SCCOc1c(C)cccc1C [drawing 1541],51 to 75%
24,CC(C)C1=C(O)C2(CC2c2ccc(-c3ccccc3)cc2)C(C)CC1 (centres unmarked) [drawing 1540],76 to 100%
25,CCN(CC)CCC(C)Nc1nc(-c2ccccn2)nc2sccc12 (centres unmarked) [drawing 1592],76 to 100%
26,O=C(c1csc2c(O)nc(-c3ccccn3)nc12)N1CCC(N2CCOCC2)CC1 [drawing 1567],1 to 25%

row,Compound,inhibition at 30 µM
1,O=C(COCc1ccnc(O)c1)Nc1nc(-c2ccccn2)nc2sccc12 [drawing 1733],51 to 75%
2,CC(C1CC1)N(CC(F)(F)F)C(=O)Cc1ccc(-c2ccccc2)cc1 (centres unmarked) [drawing 1535],76 to 100%
3,O=C(COc1ccccc1)N1CCCc2c(O)nc(-c3ccccn3)nc21 [drawing 1543],76 to 100%
4,O=C(NCCc1ccncc1)c1csc2nc(-c3ccccn3)nc(N3CCOCC3)c12 [drawing 1672],76 to 100%
5,O=C(CCc1cncnc1)Nc1nc(-c2ccccn2)nc2sccc12 [drawing 1767],76 to 100%
6,CC(Oc1ccccc1C#N)C(=O)Nc1nnc(-c2ccccn2)[nH]1 (centres unmarked) [drawing 1423],76 to 100%
7,c1ccc(-c2csc3nc(-c4ccccn4)nc(NN4CCOCC4)c23)cc1 [drawing 1623],76 to 100%
8,Cc1cccc(OCC(=O)Nc2nnc(-c3ccccn3)[nH]2)c1 [drawing 1464],51 to 75%
9,Oc1nc(-c2ccccn2)nc2c(-c3ccc(OC4CCCC4)cc3)csc12 [drawing 1739],76 to 100%
10,O=C(Cc1cccs1)Nc1nnc(-c2ccccn2)[nH]1 [drawing 1409],1 to 25%
11,O=C(CCc1nn[nH]n1)Nc1nc(-c2ccccn2)nc2sccc12 [drawing 1766],51 to 75%
12,Nc1nc(-c2ccccn2)nc2scc(Br)c12 [drawing 1770],1 to 25%
13,NC(=O)c1ccc(OCC(=O)Nc2nnc(-c3ccccn3)[nH]2)cc1 [drawing 1450],1 to 25%
14,CC1CCc2sc(C(=O)Nc3nnc(-c4ccccn4)[nH]3)cc2C1 (centres unmarked) [drawing 1443],76 to 100%
15,O=C(Nc1nnc(-c2ccccn2)[nH]1)c1ccn(-c2cccc(F)c2)n1 [drawing 1397],76 to 100%
16,COC(=O)c1cc(NC(=O)CCc2c(C)nc(-c3ccccn3)nc2O)ccc1Cl [drawing 1506],76 to 100%
17,Cc1c(C(=O)N(C)C)sc2[nH]c(-c3ccccn3)nc(=O)c12 [drawing 1497],51 to 75%
18,O=C(Nc1nnc(-c2ccccn2)[nH]1)c1ccc2ccccc2n1 [drawing 1401],25 to 50%
19,O=C(Nc1nnc(-c2ccccn2)[nH]1)c1ccc(Oc2cccnc2)cc1 [drawing 1460],76 to 100%
20,N#Cc1ccc2c(c1)CCCC2C(=O)Nc1ccnc(-c2ccccn2)n1 (centres unmarked) [drawing 1731],76 to 100%
21,COc1cc(C)c(-c2csc3c(O)nc(-c4ccccn4)nc23)cc1C [drawing 1745],76 to 100%
22,CCN(CC)C(=O)CN1CCN(c2nc(-c3ccccn3)nc3scc(-c4ccccc4)c23)CC1 [drawing 1613],76 to 100%
23,CN(CC(=O)Nc1nnc(-c2ccccn2)[nH]1)S(=O)(=O)c1ccccc1 [drawing 1467],1 to 25%
24,Cc1sc2c(N)nc(-c3ccccn3)nc2c1-c1ccccc1 [drawing 1713],76 to 100%
25,Cc1cnc(-c2ccccn2)nc1NC(=O)Cc1ccc2cnccc2c1 [drawing 1732],76 to 100%
26,O=C(CC1C=CCC1)Nc1nnc(-c2ccccn2)[nH]1 (centres unmarked) [drawing 1407],51 to 75%

row,Compound,inhibition at 30 µM
1,Oc1nc(-c2ccccn2)nc2c(-c3ccnn3-c3ccccn3)csc12 [drawing 1780],76 to 100%
2,O=C(NCCc1cncnc1)c1csc2nc(-c3ccccn3)nc(N3CCOCC3)c12 [drawing 1677],76 to 100%
3,OCCn1ccc2c1CCCC2Nc1nc(-c2ccccn2)nc2scc(-c3ccccc3)c12 (centres unmarked),76 to 100%
4,Cn1nnc2ccc(-c3csc4c(O)nc(-c5ccccn5)nc34)cc21 [drawing 1737],76 to 100%
5,Oc1nc(-c2ccccn2)nc2c(-c3cnc4ccccc4c3)csc12 [drawing 1784],76 to 100%
6,O=C(c1csc2c(O)nc(-c3ccccn3)nc12)N1CCOC(c2cccc(Cl)c2)C1 (centres unmarked) [drawing 1663],76 to 100%
7,CCN(CC)S(=O)(=O)c1cc(C)c(C)c(NC(=O)CCc2c(C)nc(-c3ccccn3)nc2O)c1 [drawing 1508],76 to 100%
8,O=C(c1csc2c(O)nc(-c3ccccn3)nc12)N1CCN(Cc2ccccc2)CC1 [drawing 1655],76 to 100%
9,N#Cc1ccc(COCC(=O)Nc2ccnc(-c3ccccn3)n2)cc1 [drawing 1689],76 to 100%
10,COc1cccc(COCC(=O)Nc2nnc(-c3ccccn3)[nH]2)c1 [drawing 1446],51 to 75%
11,CCN(CC)C(=O)c1sc2[nH]c(-c3ccccn3)nc(=O)c2c1C [drawing 1496],76 to 100%
12,O=C(Nc1nnc(-c2ccccn2)[nH]1)c1cccc(N2CCCS2(=O)=O)c1 [drawing 1452],1 to 25%
13,CN(Cc1cnn(C)c1)c1nc(-c2ccccn2)nc2scc(-c3ccccc3)c12 [drawing 1604],76 to 100%
14,CN(CC(=O)Nc1nnc(-c2ccccn2)[nH]1)Cc1ccccc1 [drawing 1449],51 to 75%
15,CC(C)CNC(=O)CN1CCN(c2nc(-c3ccccn3)nc3scc(-c4ccccc4)c23)CC1 [drawing 1614],76 to 100%
16,COC(=O)c1ccc(C(=O)NCC2(c3ccccc3OC)CCCC2)nc1 [drawing 1528],76 to 100%
17,COc1ccc(C2CN(C(=O)c3csc4c(O)nc(-c5ccccn5)nc34)CCN2)cc1 (centres unmarked) [drawing 1667],25 to 50%
18,O=C(Cc1ccccc1)NCCC(=O)Nc1nnc(-c2ccccn2)[nH]1 [drawing 1413],1 to 25%
19,CC(C(=O)Nc1ccnc(-c2ccccn2)n1)c1ccc(C#N)cc1 (centres unmarked) [drawing 1687],76 to 100%
20,O=C(COCc1cccnc1)Nc1nc(-c2ccccn2)nc2sccc12 [drawing 1705],76 to 100%
21,Nc1nc(O)c2scc(C(=O)NCCc3cccnc3)c2n1 [drawing 1560],1 to 25%
22,Cc1c(C(=O)Nc2nnc(-c3ccccn3)[nH]2)oc2c1C(=O)CCC2 [drawing 1404],76 to 100%
23,CCC(C)(C)c1ccc(OCCCC(=O)NC(C(=O)OC)C(C)C)c(C(C)(C)CC)c1 (centres unmarked) [drawing 1524],76 to 100%
24,COc1ccc(COCC(=O)Nc2ccnc(-c3ccccn3)n2)cn1 [drawing 1585],1 to 25%
25,COCCCn1ccc(Nc2cc(C)nc(-c3ccccn3)n2)n1 [drawing 1512],25 to 50%

# From patent publication US10940139B2, “Compounds that interact with the Ras superfamily for the treatment of cancers, inflammatory diseases, rasopathies, and fibrotic disease” (Shy Therapeutics LLC, priority 2017, dated 2021)
